From patent US20250114313A1, “OLIGO-BENZAMIDE ANALOGS AND THEIR USE IN CANCER TREATMENT” (BOARD OF REGENTS, THE UNIVERSITY OF TEXAS SYSTEM, priority 2022, published 2025)

How the values were obtained:
[1] = test system: MDA-MB-231 TNBC xenografts; assay: MDA-MB-231 TNBC xenografts, ERX-41; type: in vivo; conditions: oral, 10 mg/kg/day
Experimental: Animal Studies: All animal experiments were performed using UTHSA and UTSW IACUC approved protocols. For cell based xenograft tumor assays, TNBC cells (2×10^5-2×10^6) were mixed with an equal volume of matrigel and implanted in the mammary fat pads of 6-week-old female athymic nude mice as described^33. BALB/c mice were used for D2A1 syngeneic model. Once tumors reached measurable size, mice were divided into control (vehicle) and ERX-41 (10 mg/kg/oral) treatment groups. Mice bearing TNBC PDX tumors were purchased from Jackson laboratory (TM00089; TM00096; TM00098). TNBC PDX line UTPDX0001 establishment was earlier described^38. WHIM-20 ER+PDX model was purchased from Horizon Labs. OCa-PDX-38 was received from UTHSA ObGyn tissue procurement core. When tumors reached ˜750 mm^3 they were dissected into 2 mm^3 pieces and implanted into the mammary fat pads of 6 weeks old female SCID or NSG mice. When the tumor volume reached ˜200 mm^3, mice were randomized for treatment. The mice were monitored daily for adverse toxic effects and tumor volume was measured every 3-4 days using calipers. For establishing ES2 tumors, ES2/GFP/LUC cells were injected i.p. and tumors were measured twice a week using Xenogen in vivo imaging system. At the end of each experiment, the mice were euthanized, and the tumors were removed, weighed and processed for histological studies and protein analysis. Dose were selected based on pilot MTD study of 10, 50 100 mg/kg of ERX-41 for 14 days using C57BL6 mice. The mice were monitored daily for adverse toxic effects. IHC analysis was conducted as described previously^39 and immunoreactivity was visualized using DAB substrate and counterstained with hematoxylin (Vector Laboratories Inc. Burlingame, CA). Control rabbit IgG staining was used as a negative control. The sections were scored by two independent evaluators blinded to the patient's clinical status.

[2] = test system: p-PERK, IRE1α, eIF2α, CHOP in TNBC cells; assay: Western blotting of UPR proteins, TNBC cells; type: cell-based, Human; conditions: 1 μM
Experimental: (§1) Western blotting: Whole cell lysates from breast cancer cells were prepared with 2× sample buffer (60 mM Tris-HCl, pH 6.8, 2% sodium dodecyl sulfate, 10% glycerol), and before loading mixed with loading buffer (5% 2-mercaptoethanol, 0.1% bromophenol blue) and boiled for denaturation, as previously described.^33 Proteins were separated by SDS-PAGE and subjected to Western analysis using antibodies. To detect nascent translated proteins, puromycin (final concentration 10 μg/mL) was added into cell plates 30 minutes before harvesting cells. Then samples were subjected to the Western blotting. Nascent proteins were detected by anti-puromycin antibody.

SUM-159 cells = assay: CellTiter-Glo, SUM-159 WT cells (mCherry-RAMP4); type: cell-based; conditions: Homo sapiens, SUM159; SUM-159 stably transfected mCherry-RAMP4, CellTiter-Glo
Experimental: Cell viability assays: Cells were seeded in 96-well plates (2×10^3 cells/well) one day before the treatment. Cells were treated with varying concentrations of ERX-41 or ERX-11 analogs for 3-6 days. Then effects of ERX-41 or ERX-11 analogs on cell viability were measured in triplicate or sextuplicate with multiple biological replicates using the WST-1 (Promega), MTT as previously described^33 or CellTiter-Glo 2.0 (Promega) assays.

[3] = test system: MDA-MB-231 TNBC tumor xenografts; assay: IHC of ER stress markers in TNBC xenografts after a single dose; type: in vivo, mice; conditions: single dose 10 mg/kg oral, within 24 h
Experimental: Immunohistochemistry: Immunohistochemical studies were performed as described previously.^7 For the immunohistochemical studies, tissue sections were blocked in background sniper (Biocare Medical, RS966L) followed by overnight incubation with primary antibodies anti-Ki-67 antibody (1:1000, GeneTex cat #GTX16667 RRID:AB_422351) (link), anti-CHOP antibody (1:2000, Sigma, Cat #HPA068416), anti-PERK (phospho T982) antibody (1:150, Abcam Cat #ab192591, RRID:AB_2728666) link)), anti-phospho-eIF2α (Ser51) (1:50, Cell signaling, cs3398) and subsequent secondary antibody incubation for 60 min at room temperature. Immunoreactivity was visualized by using the DAB substrate and counterstained with hematoxylin (Vector Lab, Inc.). Percent of Ki67 positive proliferating cells was calculated in five randomly selected high-power fields (×40).

LAL = assay: Biotinylated compound pull down of LAL from SUM-159 lysates; type: binding, Human
Experimental: The lysate was incubated with biotinylated-ERX-11 or biotinylated-ERX-41 overnight, followed by one-hour incubation with M-270 streptavidin Dynabeads. After four times of washes with lysis buffer, samples were eluted by boiling in 2× Laemmli sample buffer. Bound proteins were resolved in SDS-PAGE followed by western blotting.

[4] = test system: SUM-159 cells with LIPA KO; assay: UPR induction and protein synthesis in SUM-159 cells with LIPA KO (RNA-seq, RT-qPCR, western); type: cell-based, Human; conditions: 1 μM, 4 h
Experimental: as §1
Real-time quantitative PCR (RT-qPCR): Total RNA was prepared from breast cancer cells using the RNeasy Mini Kit (Qiagen) according to the manufacturer protocols. Subsequently, total RNAs were reverse transcribed into cDNA using iScript Reverse Transcription Supermix (Bio-rad) and by using SYBR Green on an Illumina Real-Time PCR system.
RNA-sequencing: mRNA-seq sequencing library construction was performed using TruSeq RNA Library Preparation Kit (Illumina) according to the manufacturer's instructions. FASTQ reads from Genomics Core at UTSW were mapped to Human GRCh38 genome using HiSAT2 (RRID:SCR_015530). Differential expression analysis is performed using DEseq2 (RRID:SCR_015687). Abundances of transcripts are calculated using ballgown (Frazee et al. 2014). The values of Fragments Per Kilobase of transcript per Million mapped reads (FPKM) were used for Gene Set Enrichment Analysis (GSEA). GSEA was performed by using the GSEA software (RRID:SCR_005724) and C5 ontology gene sets (14765 gene sets in total). mRNA-seq data from this study are available from NCBI GEO under accession #GSE168800.

HMEC cells = assay: Live cell imaging with SYTOX Green, cell death in HMEC; type: cell-based
Experimental: Live cell imaging: Live cell images were acquired by Lionheart FX automated microscope (BioTek). Cells were plated one day before the experiment. For cell death assay, 0.2 μM SYTOX Green was added into the plate 15 min before the experiment.

[5] = test system: HSPA5, DDIT3, sXBP1 mRNA in HMEC cells; assay: RT-qPCR of ER stress / UPR genes, HMEC; type: cell-based, human; conditions: 1 μM

In the case of `CC(C)COc1cc(C(=O)Nc2ccc(C(=O)N[C@H]3CC[C@H](C)CC3)cc2OCC(C)C)ccc1NC(=O)c1ccc([N+](=O)[O-])c(OCCO)c1` [ERX-41], the “extirpated tumor weights and sizes at end of study” value [1] is reported as “decreased tumor growth”, the “growth of established xenografts” value [1] is reported as “significantly decreased the growth” and the “overt toxicity, body weights of treated mice” value [1] is reported as “no alterations in body weights”. For the same molecule, the “induction of ER stress / UPR proteins” value ([2]; p-PERK, IRE1α, eIF2α, CHOP) was “induces ER stress and downstream UPR pathways”, the “PERK activation and peIF2α, parental SUM-159” value ([2]; western) was “activates PERK” and the IC50 (SUM-159 cells) was roughly 0.2 µM. For the same molecule, the “ER stress markers in tumor xenograft tissues” value [3] was “enhanced p-PERK, and p-eIF2α staining”, the “pulldown of LIPA constructs” value (LAL; biotinylated ERX-41, WT, H274Y, ΔLXXLL, L242P) was “interaction between ERX-41 and proteins encoded by WT-LIPA and H274Y MT-LIPA but not ΔLXXLL MT-LIPA or L242P MT-LIPA” and the “binding to LAL in TNBC cells” value (LAL; biotinylated compound, streptavidin pull down) was “binds to LAL”. For the same molecule, the “genes altered by RNA sequencing in LIPA KO cells” value [4] was “no genes significantly altered”, the “induction of cell death in HMEC” value (HMEC cells) was “did not significantly induce cell death” and the “upregulation of HSPA5, DDIT3, sXBP1 mRNA in HMEC” value [5] was “not in HMEC cells”.
